For one experiment, the system named is Kex2. Kind of experiment: MSP-MS profiling of conditioned media with inhibitor pretreatment, cleavage sites assigned to Kex2. In kind it is biochemical, C. albicans. The following applies: 1 mM EDTA or 10 μM pepstatin A. The source says: FIG. 8 depicts global substrate specificity profiling of recombinant Kex2 from Saccharomyces cerevisiae. (top) Time-dependent generation of cleavages following dibasic (P2-P1) K/R-R residues in the MSP-MS library for recombinant Kex2 and C. albicans wild-type (SN425) conditioned media from 24-hour biofilm and planktonic cultures. Cleavage sites assigned to Kex2 in the conditioned media profiles were sensitive to EDTA and insensitive to pepstatin treatments. […] This is illustrated in the differential cleavage pattern of an example MSP-MS peptide.

Experiment [1] relates to aspartyl protease activity in conditioned media. Kind of experiment: Pepstatin pretreatment of conditioned media, fluorogenic substrate cleavage. The following applies: 10 μM pepstatin, VFILWRTE and TFSYnRWP substrates. The format is biochemical, C. albicans. As to the method:
FIGS. 4A-4B depict probe activity in biofilm and planktonic conditioned media following pepstatin A pretreatment and in conditioned media from sap5Δ/Δ, sap6Δ/Δ, and sap5/6ΔΔ/ΔΔ deletion strains. […] Matched comparison to wild-type (SN425) conditioned media is provided (FIG. 12).
To further confirm probe selectivity for the target proteases, conditioned media preparations were also assayed from sap5Δ/Δ and sap6Δ/Δ single deletion mutant strains and a sap5/6ΔΔ/ΔΔ double deletion mutant strain (FIG. 4B). […] Indeed, shotgun proteomics analysis on matched biofilm conditioned media preparations from the wild-type reference and mutant strains confirmed an increase in Sap6 levels associated with the sap5Δ/Δ mutant strain. In contrast, there was no observable increase in Sap5 levels associated with the sap6Δ/Δ mutant strain in agreement with the activity results (Table 5). We note that substrate cleavage in the sap5/6ΔΔ/ΔΔ double deletion mutant strain indicates proteolytic activity from additional proteases that are in lower abundance, possibly reflecting compensation for loss of SAP5/SAP6.

Experiment [2] deals with pepstatin-sensitive protease activity in rat serum. Kind of experiment: Sap6 substrate cleavage in blood/serum from rat biofilm catheter and IV infection models. In kind it is biochemical. As to the method: FIG. 16 depicts the detection of pepstatin-sensitive activity in serum from C. albicans biofilm rat catheter and disseminated infection models. Detection of pepstatin-sensitive protease activity with the TFSYnRWP (SEQ ID NO: 23) fluorogenic probe in rat serum samples. Blood was collected both directly from C. albicans biofilm-infected catheters and peripherally 48 hours post biofilm infection (N=3 rats). Blood was also sampled peripherally 24 hours post IV infection with C. albicans (10^6 CFUs) (N=3 rats). Uninfected rats were used as a healthy control (N=3 rats). Activity assays were carried out using serum samples that had been diluted 25-fold into pH 4.0 buffer.
FIG. 22 depicts detection of infection-specific aspartyl protease activity in serum from a rat catheter biofilm model using the Sap6-cleavable probe. Serum was collected both directly from the biofilm-infected catheter, peripherally from the rat jugular vein, and from the jugular vein of an uninfected control rat (n=2).
To provide validation of the protease activity-based diagnostic approach in a rat biofilm catheter model, blood was directly sampled from (i) the catheters of rats with introduced C. albicans biofilms, (ii) peripherally from the same rats, and, (iii) following IV infection, and (iv) as a control, from rats not exposed to C. albicans.

The next experiment concerns recombinant Sap6. Kind of experiment: Internally quenched fluorogenic substrate activity assay with recombinant Sap6. The format is biochemical, C. albicans. The following applies: 2 μg/mL recombinant Sap, 10 μM substrate, pH 5.5. As to the method:
Specific activity was determined with 2 μg/mL recombinant Saps and the substrates […] (10 μM, SEQ ID NO: 22), IYRnHVQL (25 μM; SEQ ID NO: 24), WPSnNKVG (25 μM; SEQ ID NO: 25), and TFSYnRWP (10 μM; SEQ ID NO: 23). RFU was converted to moles of product formation using a correction factor experimentally determined for each substrate.
For each protease, two 8-mer peptide sequences containing P4-P4′ residues from Sap5- or Sap6-favored cleavages were selected for incorporation into internally quenched fluorogenic peptides. The fluorogenic probes were synthesized bearing either a 5-carboxyfluorescein or 7-methoxycoumarin fluorophore with a corresponding quencher positioned at opposing termini such that peptide cleavage yields a fluorescence signal.
Activity assays with internally quenched fluorogenic substrates were performed up to one hour in black 96-well round bottom plates (Costar) using a BioTek Synergy H4 Hybrid Multi-Mode Microplate Reader set to 37° C. The following excitation/emission wavelengths were used: 328 nm/393 nm (gain 96) for MCA and Ex/Em of 485 nm/538 nm (gain 94) for 5-FAM. RFU was corrected to moles of product formation as appropriate using a conversion factor calculated from the total proteolytic hydrolysis of each substrate. Activity assays with conditioned media were performed with 10 μM substrate and either 20 μg/mL protein sample for […] […]

Experiment [3] deals with conditioned media from C. albicans biofilm and planktonic cultures. The experiment in a line: Fluorogenic substrate cleavage in biofilm and planktonic conditioned media. In kind it is biochemical. The following applies: for preferential cleavage by biofilm culture medium (B/P): biofilm versus planktonic conditioned media. As to the method: Activity assays with internally quenched fluorogenic substrates were performed up to one hour in black 96-well round bottom plates (Costar) using a BioTek Synergy H4 Hybrid Multi-Mode Microplate Reader set to 37° C. The following excitation/emission wavelengths were used: 328 nm/393 nm (gain 96) for MCA and Ex/Em of 485 nm/538 nm (gain 94) for 5-FAM. RFU was corrected to moles of product formation as appropriate using a conversion factor calculated from the total proteolytic hydrolysis of each substrate. Activity assays with conditioned media were performed with 10 μM substrate and either 20 μg/mL protein sample for […] (SEQ ID NO: 22) or 10 μg/mL protein sample for TFSYnRWP (SEQ ID NO: 23). For assays with recombinant Saps, 2 μg/mL Sap5 and Sap6 were used with the following substrate concentrations: […] (10 μM; SEQ ID NO: 22), IYRnHVQL (25 μM; SEQ ID NO: 24), WPSnNKVG (25 μM; SEQ ID NO: 25), and TFSYnRWP (10 μM; SEQ ID NO: 23).

“Also recorded” adds a separate entry of the source. Square brackets hold non-standard residues; d marks the D form. Ends that are not written are not given here. Peptide text beside a SMILES is read from it. * marks the point of attachment. Lys(DNP) = Lys carrying DNP quencher; Sta = CC(C)C[C@H](N)[C@@H](O)CC(=O)O; Isovaleryl = CC(C)CC(=O)*; Nle = CCCC[C@H](N)C(=O)O

Regarding `O=C(O)CN(CCN(CC(=O)O)CC(=O)O)CC(=O)O` [EDTA], the “sensitivity of Kex2-assigned cleavage sites to inhibitor treatment” value in the experiment on Kex2 is “sensitive”.

Turning to `CC(C)CC(=O)N[C@H](C(=O)N[C@H](C(=O)N[C@@H](CC(C)C)[C@@H](O)CC(=O)N[C@@H](C)C(=O)N[C@@H](CC(C)C)[C@@H](O)CC(=O)O)C(C)C)C(C)C` [Pepstatin A] (Isovaleryl-VV[Sta]A[Sta]-OH), in experiment [1], the “effect of pepstatin pretreatment on substrate cleavage” value is on record as “significant reduction in substrate cleavage”. For the same molecule, the “effect of pepstatin pretreatment on TFSYnRWP cleavage in blood of infected rats” value in experiment [2] (pepstatin pretreatment) is “significantly reduced”. The “sensitivity of Kex2-assigned cleavage sites to inhibitor treatment” value in the experiment on Kex2 is “insensitive”.

Consider “DArg-DArg-Lys(MCA)-Thr-Phe-Ser-Tyr-Nle-Arg-Trp-Pro-Lys(DNP) ({dR-dR-Lys(MCA)}-TFSY[Nle]RWP-{Lys(DNP)}) [TFSYnRWP, internally quenched fluorogenic substrate for Sap6]”, for which the “specific activity and selectivity for Sap6” value with recombinant Sap6 was “highest specific activity and selectivity; also recorded: high specific activity and selectivity”. The “preferential cleavage by biofilm culture medium (B/P)” value in experiment [3] was 4.4 fold. In addition, in experiment [3] (sap5Δ/Δ single deletion strain), the “substrate activity in sap5Δ/Δ deletion strain conditioned media” value is “increased”. For the same molecule, the “substrate cleavage, biofilm versus planktonic conditioned media” value in experiment [3] (wild-type, 24-hour conditioned media, 10 μM substrate) is on record as “higher biofilm activity”. Moreover, in experiment [2] (C. albicans biofilm catheter or IV infected rats), the “substrate cleavage in blood harvested from infected rats” value is given as “readily detected”. Also, in experiment [2] (rats not exposed to C. albicans), the “cleavage activity in uninfected rats” value is recorded as “absent”.

Consider “VFILWRTE (also: CPQ2 quencher, place not given here, 5-FAM, place not given here, DArg-DArg-NH2, place not given here) [internally quenched fluorogenic substrate for Sap5]”, for which, in experiment [3], the “preferential cleavage by biofilm culture medium (B/P)” value is recorded as 10 fold.
